Source: article doi:10.1101/679977v1 (bioRxiv, 2019)
Square brackets hold non-standard residues; d marks the D form. Ends that are not written are not given here. Peptide text beside a SMILES is read from it.

Assays:
[1] = tested on: HEK293T cells; assay: Cytotoxicity MTT assay; type: cell-based, human; conditions: 24 h, 37°C, 128 μM peptide, three independent assays
[2] = tested on: E. coli ATCC25922; assay: Salt, serum, acid and alkaline sensitivity; type: cell-based; conditions: for MIC, Control: absence of physiological salts, serum, acid and alkaline; for MIC, FeCl3: in presence of 4μM FeCl3 (final); for MIC, MgCl2: in presence of 1 mM MgCl2; for MIC, KCl: in presence of 4.5 mM KCl (final); for MIC, NaCl: in presence of 150 mM NaCl (final); for MIC, PH=2: peptide incubated at pH=2 for 4 h prior to MIC determination; for MIC, PH=4: peptide incubated at pH=4 for 4 h prior to MIC determination; for MIC, PH=10: peptide incubated at pH=10 for 4 h prior to MIC determination; for MIC, PH=12: peptide incubated at pH=12 for 4 h prior to MIC determination
[3] = tested on: Beneficial strains; assay: Geometric mean of MICs; type: cell-based; conditions: geometric mean of MICs against beneficial strains; >128 counted as 256 μM
[4] = tested on: IPEC-J2 cells; assay: Cytotoxicity MTT assay; type: cell-based, porcine; conditions: 24 h, 37°C, 128 μM peptide, three independent assays
[5] = tested on: E. coli; assay: Geometric mean of MICs, selectivity and targeting indices; type: cell-based; conditions: for TI Beneficial strains (targeting index): GM(E. coli)/GM(beneficial strains); for TI Beneficial strains (targeting index) / TI Pathogenic strains (targeting index): smaller = greater specificity; for TI Pathogenic strains (targeting index): GM(E. coli)/GM(other pathogenic strains); for TI All (TIall, targeting index): all strains, smaller = greater specificity for E. coli; for GM E. coli: geometric mean of MICs against the 6 E. coli strains, >128 counted as 256 μM; for SI E. coli (selectivity index): MHC/GM (E. coli), MHC >128 counted as 256 μM, larger = greater cell selectivity

| Molecule | cells killed [1] | MIC, Control [2] [µM] | MIC, FeCl3 [2] [µM] | MIC, MgCl2 [2] [µM] | MIC, KCl [2] [µM] | MIC, NaCl [2] [µM] | MIC, PH=2 [2] [µM] | MIC, PH=4 [2] [µM] | MIC, PH=10 [2] [µM] | MIC, PH=12 [2] [µM] | GM Beneficial strains [3] [µM] | cells killed [4] | TI Beneficial strains (targeting index) [5] | TI Pathogenic strains (targeting index) [5] | TI All (TIall, targeting index) [5] | GM E. coli [5] [µM] | SI E. coli (selectivity index) [5] |
| --- | --- | --- | --- | --- | --- | --- | --- | --- | --- | --- | --- | --- | --- | --- | --- | --- | --- |
| CC[C@H](C)[C@H](NC(=O)CNC(=O)[C@H]1CCCN1C(=O)[C@H](CCCCN)NC(=O)[C@H](Cc1c[nH]c2ccccc12)NC(=O)[C@@H](NC(=O)[C@H](CCCCN)NC(=O)[C@H](CCCCN)NC(=O)[C@H](Cc1c[nH]c2ccccc12)NC(=O)[C@@H](NC(=O)[C@H](CCCCN)NC(=O)[C@H](CCCCN)NC(=O)[C@@H](N)Cc1c[nH]c2ccccc12)[C@@H](C)CC)[C@@H](C)CC)C(=O)N[C@@H](CCCCN)C(=O)N[C@@H](CCCCN)C(=O)N[C@@H](Cc1c[nH]c2ccccc12)C(=O)N[C@H](C(=O)N[C@@H](CCCCN)C(=O)N[C@@H](CCCCN)C(=O)N[C@@H](Cc1c[nH]c2ccccc12)C(=O)N[C@H](C(=O)N[C@@H](CCCCN)C(=O)O)[C@@H](C)CC)[C@@H](C)CC [Peptide 4] (H-WKKIWKKIWK[dP]GIKKWIKKWIK-OH; N-terminus and C-terminus assumed) | approximately 99% | 2 | 2 | 2 | 2 | 2 | 2 | 2 | 2 | 2 | 50.797 | approximately 99% | 0.022 | 0.445 | 0.233 | 1.122 | – |
| CC[C@H](C)[C@H](NC(=O)CNC(=O)[C@H]1CCCN1C(=O)[C@H](CCCCN)NC(=O)[C@H](Cc1c[nH]c2ccccc12)NC(=O)[C@@H](NC(=O)[C@H](CCCCN)NC(=O)[C@@H](NC(=O)[C@@H](N)Cc1c[nH]c2ccccc12)[C@@H](C)CC)[C@@H](C)CC)C(=O)N[C@@H](CCCCN)C(=O)N[C@@H](CCCCN)C(=O)N[C@@H](Cc1c[nH]c2ccccc12)C(=O)N[C@H](C(=O)N[C@@H](CCCCN)C(=O)O)[C@@H](C)CC [Peptide 7] (H-WIKIWK[dP]GIKKWIK-OH; N-terminus and C-terminus assumed) | – | 32 | 32 | >64 | 32 | >64 | 32 | 32 | 32 | 32 | 256.000 | – | 0.099 | 0.111 | 0.105 | 25.398 | 10.080 |
| CC[C@H](C)[C@H](NC(=O)CNC(=O)[C@H]1CCCN1C(=O)[C@H](CCCCN)NC(=O)[C@H](Cc1c[nH]c2ccccc12)NC(=O)[C@@H](NC(=O)[C@H](CCCCN)NC(=O)[C@H](CCCCN)NC(=O)[C@@H](N)Cc1c[nH]c2ccccc12)[C@@H](C)CC)C(=O)N[C@@H](CCCCN)C(=O)N[C@@H](CCCCN)C(=O)N[C@@H](Cc1c[nH]c2ccccc12)C(=O)N[C@@H](CCCCN)C(=O)N[C@@H](CCCCN)C(=O)O [Peptide 8] (H-WKKIWK[dP]GIKKWKK-OH; N-terminus and C-terminus assumed) | – | 16 | 16 | 32 | 16 | >64 | 64 | 32 | 16 | 64 | 256.000 | – | 0.079 | 0.079 | 0.079 | 20.159 | 12.699 |
| CC[C@H](C)[C@H](NC(=O)CNC(=O)[C@H]1CCCN1C(=O)[C@H](CCCCN)NC(=O)[C@H](Cc1c[nH]c2ccccc12)NC(=O)[C@@H](NC(=O)[C@H](CCCCN)NC(=O)[C@@H](NC(=O)[C@@H](N)Cc1c[nH]c2ccccc12)[C@@H](C)CC)[C@@H](C)CC)C(=O)N[C@@H](CCCCN)C(=O)N[C@@H](CCCCN)C(=O)N[C@@H](Cc1c[nH]c2ccccc12)C(=O)N[C@@H](CCCCN)C(=O)N[C@@H](CCCCN)C(=O)O [Peptide 9] (H-WIKIWK[dP]GIKKWKK-OH; N-terminus and C-terminus assumed) | – | 16 | 16 | 64 | 32 | >64 | 32 | 32 | 16 | 16 | 161.270 | – | 0.111 | 0.088 | 0.100 | 17.959 | 14.255 |
| CC[C@H](C)[C@H](NC(=O)CNC(=O)[C@H]1CCCN1C(=O)[C@H](CCCCN)NC(=O)[C@H](Cc1c[nH]c2ccccc12)NC(=O)[C@@H](NC(=O)[C@H](CCCCN)NC(=O)[C@H](CCCCN)NC(=O)[C@H](Cc1c[nH]c2ccccc12)NC(=O)CNC(=O)CNC(=O)CNC(=O)[C@H](C)NC(=O)[C@H](CO)NC(=O)[C@H](CC(C)C)NC(=O)[C@H](CCCNC(=N)N)NC(=O)[C@@H](NC(=O)[C@H](CCCNC(=N)N)NC(=O)[C@@H]1CCCN1C(=O)[C@H](CCCNC(=N)N)NC(=O)[C@H](CCCCN)NC(=O)[C@@H](N)CCC(N)=O)C(C)C)[C@@H](C)CC)C(=O)N[C@@H](CCCCN)C(=O)N[C@@H](CCCCN)C(=O)N[C@@H](Cc1c[nH]c2ccccc12)C(=O)N[C@H](C(=O)N[C@@H](CCCCN)C(=O)O)[C@@H](C)CC [Peptide 12] (H-QKRPRVRLSAGGGWKKIWK[dP]GIKKWIK-OH; N-terminus and C-terminus assumed) | – | 8 | 8 | 32 | 8 | >64 | 16 | 8 | 16 | 16 | 256.000 | – | 0.031 | 0.039 | 0.035 | 8.000 | 32.000 |
| QKRPRVRLSA [Peptide 14, reference compound] | – | 64 | >64 | >64 | >64 | >64 | 64 | >64 | >64 | 64 | 256.000 | – | 0.397 | 0.397 | 0.397 | 101.594 | 2.520 |
| WIKIWKKIIKKWKK [Peptide 10] | approximately 99% | 8 | 8 | 64 | 8 | 32 | 8 | 8 | 8 | 8 | 181.019 | ~63% | – | 0.707 | 0.376 | 6.350 | 40.315 |
